# Results published in patent EP4520333A1, “SYK INHIBITORS FOR USE IN THE TREATMENT OF IMMUNE CHECKPOINT INHIBITION INDUCED ADVERSE EVENTS” (Albert-Ludwigs-Universität Freiburg, priority 2023, dated 2025).
# Columns and labels:
# [1] = test system: B-cell lymphomas; details: in vitro; cited from earlier work
# [2] = test system: mice; assay: Novel object recognition test; format: in vivo
# Excerpt: (§1) The invention is further described by the following figures. These are not intended to limit the scope of the invention but represent preferred embodiments of aspects of the invention provided for greater illustration of the invention described herein. • Figure 1: Microglia show signs of activation upon anti-PD-1 treatment in the absence of tumor. (A-C) Histology of brain samples immunostained for Iba-1^+ cells from the cortex of mice treated with anti-PD-1 or isotype control on day 22 after treatment. (A) Representative images from each group are shown. Scale bars, 50µm. The scatter plots show the number of Iba-1^+ cells (per mm^2) in cortex (B) and hippocampus (C). The results (mean ± s.e.m.) were combined. The experiment was performed three times. The P-values were calculated using the unpaired student's t-test. (D) Representative images showing Imaris (Bitplane)-based 3D-reconstruction of Iba-1^+ microglia from the cortex of mice treated with anti-PD-1 or isotype control as indicated. Scale bar: 10µm. (E-H) Scatter plots showing Imaris-based automated quantification of microglial morphology from microglia the cortex of mice treated with anti-PD-1 or isotype control on day 22 after treatment. […] The P-values were calculated using the unpaired student's t-test. • Figure 2: Anti-PD-1 treatment causes neurocognitive deficits and increased CSF-1R and MHC-II expression on microglia. (A-B) Representative immunofluorescence images and scatter plot depicting the quantification of the ratio of extravascular versus intravascular FITC-dextran indicative of BBB leakage via extravasation of FITC-dextran in the cortex of either untreated, isotype-treated, or anti-PD-1-treated mice. […] (C-D) The scatter plot (C) and representative histogram (D) show the quantification (fold change of MFI) of CSF-1R (CD115) on microglia (CD45^lo CD11b^+) isolated from the CNS of mice treated with anti-PD-1 or isotype control on day 22. […] The P-values were calculated using the student's t-test (B, C, E, K-M) and paired samples Wilcoxon test (G, I). […] The P-values were calculated using the unpaired student's t-test. […]
# [3] = test system: mice; assay: Elevated plus maze test; format: in vivo; details: melanoma bearing mice, anti-PD-1 plus Syk inhibitor vs anti-PD-1 plus vehicle (Fig. 7L day 17; Fig. 33A)
# Excerpt: (§2) The invention is further described by the following figures. These are not intended to limit the scope of the invention but represent preferred embodiments of aspects of the invention provided for greater illustration of the invention described herein. • Figure 1: Microglia show signs of activation upon anti-PD-1 treatment in the absence of tumor. (A-C) Histology of brain samples immunostained for Iba-1^+ cells from the cortex of mice treated with anti-PD-1 or isotype control on day 22 after treatment. (A) Representative images from each group are shown. Scale bars, 50µm. The scatter plots show the number of Iba-1^+ cells (per mm^2) in cortex (B) and hippocampus (C). The results (mean ± s.e.m.) were combined. […] The P-values were calculated using the unpaired student's t-test. […] (E-H) Scatter plots showing Imaris-based automated quantification of microglial morphology from microglia the cortex of mice treated with anti-PD-1 or isotype control on day 22 after treatment. […] The P-values were calculated using the unpaired student's t-test. • Figure 2: Anti-PD-1 treatment causes neurocognitive deficits and increased CSF-1R and MHC-II expression on microglia. […] (C-D) The scatter plot (C) and representative histogram (D) show the quantification (fold change of MFI) of CSF-1R (CD115) on microglia (CD45^lo CD11b^+) isolated from the CNS of mice treated with anti-PD-1 or isotype control on day 22. […]
# [4] = test system: mice; assay: Grip strength test; format: in vivo; details: melanoma bearing mice
# Excerpt: as §2
# [5] = test system: cells isolated from BM and spleen; assay: Flow cytometry of peripheral immune cells from BM and spleen of melanoma-bearing mice; format: in vivo
# Excerpt: as §1
# [6] = test system: microglia (CD45lo CD11b+); assay: Flow cytometry of microglia / CD11b+ cells isolated from the CNS of mice; format: in vivo; details: melanoma bearing mice on CSF-1R inhibitor diet vs control diet (Fig. 6, Fig. 14)
# Excerpt: as §2
# [7] = test system: lymphoma cells; details: reference (45); cited from earlier work
smiles,measurement,setting,value
CCS(=O)(=O)N1CCN(c2ccc(Nc3ncc(C(N)=O)c(NC4CC4)n3)cc2)CC1 [Cerdulatinib],activity against B-cell lymphomas,[1],in vitro activity
COc1cc(Nc2ncc(F)c(Nc3ccc4c(n3)N(COP(=O)(O)O)C(=O)C(C)(C)O4)n2)cc(OC)c1OC [Fostamatinib],time spent exploring a novel object with respect to the total time (memory),"[2]; melanoma bearing mice, anti-PD-1 plus Syk inhibitor vs anti-PD-1 plus vehicle (Fig. 7K day 17; Fig. 33B)",reproducible
same,entries into open arms (exploratory),[3],reproducible
same,grip strength normalized to body weight,[4]; anti-PD-1 plus Syk inhibitor or vehicle (Fig. 7M day 17; Fig. 33C),reproducible
same,"peripheral myeloid compartment (CD45+, F4/80+ cells in BM and spleen)",[5]; anti-PD-1/isotype and second Syk inhibitor/vehicle (Fig. 33D-G),No changes
same,CD3+ T cells in the BM and spleen,[5]; anti-PD-1/isotype and second Syk inhibitor/vehicle (Fig. 33H and I),expansion
COc1ncc(F)cc1CNc1ccc(Cc2c[nH]c3ncc(C)cc23)c(F)n1 [PLX5622],CSF-1R positive cells (CD11b+ and CD11b+CD45lo cells in the CNS),[6],depletion
same,"neurocognitive function in novel object recognition test, anti-PD-1 treated mice","[2]; melanoma bearing mice treated with anti-PD-1 plus depleting agent or its control, day 23 (Fig. 6B, F, J, M, O)",improved
same,"neurocognitive function in novel object recognition test, isotype treated mice","[2]; melanoma bearing mice treated with isotype antibody plus depleting agent or its control, day 23 (Fig. 6A, E)",did not develop neurocognitive deficits
same,grip strength normalized to body weight,"[4]; isotype or anti-PD-1 plus depleting agent or its control, day 23 (Fig. 6C, D, G, H)",intact
same,"frequencies of CD45, CD11b, Ly6C and CD11c populations in the BM and spleen",[5]; CSF-1R inhibitor diet day -7 to day 23,did not alter
Cn1cc(-c2nc(N[C@@H]3CCCC[C@@H]3N)c(F)c3c2C(=O)NC3)cn1 [TAK-659],"pro-survival, proliferative, chemoresistant, and activation effects promoted by the microenvironment",[7],impair
